The results in this text go back to US11168093B2, “Thienopyridine inhibitors of RIPK2” (Celgene Corporation, priority 2018, dated 2021).

The structures appear in SMILES notation. Bounds are passed on as bounds.

Sequence of RIPK2 enzyme (O43353 whole entry): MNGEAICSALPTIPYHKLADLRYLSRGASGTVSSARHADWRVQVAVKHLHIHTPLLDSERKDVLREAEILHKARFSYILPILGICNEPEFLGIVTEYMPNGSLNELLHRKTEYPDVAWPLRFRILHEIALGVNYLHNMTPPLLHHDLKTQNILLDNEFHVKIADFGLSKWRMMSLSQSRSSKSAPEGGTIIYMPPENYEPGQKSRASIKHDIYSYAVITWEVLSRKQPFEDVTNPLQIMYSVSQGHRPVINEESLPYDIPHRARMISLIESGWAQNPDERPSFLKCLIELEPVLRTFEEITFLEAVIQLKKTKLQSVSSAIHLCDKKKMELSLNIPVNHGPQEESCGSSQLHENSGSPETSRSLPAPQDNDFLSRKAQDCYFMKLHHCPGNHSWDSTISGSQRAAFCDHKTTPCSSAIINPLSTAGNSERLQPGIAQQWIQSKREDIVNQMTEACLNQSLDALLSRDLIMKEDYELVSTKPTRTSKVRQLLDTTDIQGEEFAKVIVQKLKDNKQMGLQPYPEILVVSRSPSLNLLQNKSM

The test concerns the target RIPK2 enzyme (Homo sapiens (Human), UniProt O43353). Kind of test: RIPK2 inhibition assay, TR-FRET LanthaScreen Tracer 199 screening assay. It counts as binding. The settings on record: 5 nM RIPK2 enzyme, Tracer 199 at 50 nM, Eu-anti-His Antibody at 2 nM, 1 hour incubation. In short, it runs like this: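 TR-FRET binding displacement: 5 nM RIPK2, 50 nM Tracer 199, 2 nM Eu-anti-His antibody in 1× kinase reaction buffer, 1 h, read at room temperature (340 ex/665 and 615 em). No-enzyme background subtracted; percent inhibition versus uninhibited controls, IC50 from unconstrained variable-slope fit.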
As a reminder, the IC50 is the concentration that gives 50% inhibition. In turn, `CCN1CCC(c2cc3c(Nc4c(F)cc5scnc5c4F)ccnc3s2)C12CCOCC2` (stereo not shown) [Example 104, N-(2-(1-ethyl-8-oxa-1-azaspiro[4.5]decan-4-yl)thieno[2,3-b]pyridin-4-yl)-4,6-difluorobenzo[d]thiazol-5-amine] displayed an IC50 of at least 50 nM.

`C1=C(c2cc3c(Nc4ccc5scnc5c4)ccnc3s2)CCNCC1` [Example 105, N-(2-(2,3,6,7-tetrahydro-1H-azepin-4-yl)thieno[2,3-b]pyridin-4-yl)benzo[d]thiazol-5-amine] showed an IC50 of at most 10 nM.

Regarding `CN1CCC=C(c2cc3c(Nc4ccc5scnc5c4)ccnc3s2)CC1` [Example 106, N-(2-(1-methyl-2,3,6,7-tetrahydro-1H-azepin-4-yl)thieno[2,3-b]pyridin-4-yl)benzo[d]thiazol-5-amine], the IC50 is at most 10 nM.

With `CC(=O)N1CCC=C(c2cc3c(Nc4ccc5scnc5c4)ccnc3s2)CC1` [Example 107, 1-(4-(4-(benzo[d]thiazol-5-ylamino)thieno[2,3-b]pyridin-2-yl)-2,3,6,7-tetrahydro-1H-azepin-1-yl)ethan-1-one], the IC50 was at most 10 nM.

For the compound `c1cc(Nc2ccc3scnc3c2)c2cc(C3CCCNCC3)sc2n1` (stereo not shown) [Example 108, N-(2-(azepan-4-yl)thieno[2,3-b]pyridin-4-yl)benzo[d]thiazol-5-amine], the IC50 is at most 10 nM.

`CN1CCCC(c2cc3c(Nc4ccc5scnc5c4)ccnc3s2)CC1` (stereo not shown) [Example 109, N-(2-(1-methylazepan-4-yl)thieno[2,3-b]pyridin-4-yl)benzo[d]thiazol-5-amine] returned an IC50 of at most 10 nM.

The compound `CCN1CCCC(c2cc3c(Nc4ccc5scnc5c4)ccnc3s2)CC1` (stereo not shown) [Example 110, N-(2-(1-ethylazepan-4-yl)thieno[2,3-b]pyridin-4-yl)benzo[d]thiazol-5-amine] displayed an IC50 of at most 10 nM.

In turn, `CC(=O)N1CCCC(c2cc3c(Nc4ccc5scnc5c4)ccnc3s2)CC1` (stereo not shown) [Example 111, 1-(4-(4-(benzo[d]thiazol-5-ylamino)thieno[2,3-b]pyridin-2-yl)azepan-1-yl)ethan-1-one] registered an IC50 of 10 to 20 nM.

As for `C1=C(c2cc3c(Nc4ccc5scnc5c4)ccnc3s2)CNCCC1` [Example 112, N-(2-(2,5,6,7-tetrahydro-1H-azepin-3-yl)thieno[2,3-b]pyridin-4-yl)benzo[d]thiazol-5-amine], the IC50 was at most 10 nM.

As for `CN1CCCC=C(c2cc3c(Nc4ccc5scnc5c4)ccnc3s2)C1` [Example 113, N-(2-(1-methyl-2,5,6,7-tetrahydro-1H-azepin-3-yl)thieno[2,3-b]pyridin-4-yl)benzo[d]thiazol-5-amine], the half-inhibitory concentration (IC50) was at most 10 nM.

In the case of `CC(=O)N1CCCC=C(c2cc3c(Nc4ccc5scnc5c4)ccnc3s2)C1` [Example 114, 1-(6-(4-(benzo[d]thiazol-5-ylamino)thieno[2,3-b]pyridin-2-yl)-2,3,4,7-tetrahydro-1H-azepin-1-yl)ethan-1-one], the IC50 was at most 10 nM.

`CC1NCCCCC1c1cc2c(Nc3ccc4scnc4c3)ccnc2s1` (stereo not shown) [Example 115a, N-(2-(2-methylazepan-3-yl)thieno[2,3-b]pyridin-4-yl)benzo[d]thiazol-5-amine] gave an IC50 of at most 10 nM.

`CC1C(c2cc3c(Nc4ccc5scnc5c4)ccnc3s2)CCCCN1C` (stereo not shown) [Example 116a, N-(2-(1,2-dimethylazepan-3-yl)thieno[2,3-b]pyridin-4-yl)benzo[d]thiazol-5-amine] had an IC50 of at most 10 nM.

On to `CC1NCCCCC1c1cc2c(Nc3cc4ncsc4cc3F)ccnc2s1` (stereo not shown) [Example 117c], for which the IC50 is at most 10 nM.

For the compound `CC1NCCCCC1c1cc2c(Nc3c(F)cc4scnc4c3F)ccnc2s1` (stereo not shown) [Example 118b, 4,6-difluoro-N-(2-(2-methylazepan-3-yl)thieno[2,3-b]pyridin-4-yl)benzo[d]thiazol-5-amine], the IC50 was at most 10 nM.

In turn, `CC1NCCCC1c1cc2c(Nc3ccc4scnc4c3)c(F)cnc2s1` (stereo not shown) [Example 119, N-(5-fluoro-2-(2-methylpiperidin-3-yl)thieno[2,3-b]pyridin-4-yl)benzo[d]thiazol-5-amine] came in with an IC50 of 20 to 50 nM.

Compound `CC1C(c2cc3c(Nc4ccc5scnc5c4)c(F)cnc3s2)CCCN1C` (stereo not shown) [Example 120, N-(2-(1,2-dimethylpiperidin-3-yl)-5-fluorothieno[2,3-b]pyridin-4-yl)benzo[d]-thiazol-5-amine] showed an IC50 of at most 10 nM.

Turning to `CCN1CCCC(c2cc3c(Nc4ccc5scnc5c4)c(F)cnc3s2)C1C` (stereo not shown) [Example 121, N-(2-(1-ethyl-2-methylpiperidin-3-yl)-5-fluorothieno[2,3-b]pyridin-4-yl)benzo[d]thiazol-5-amine], the IC50 was at most 10 nM.

The compound `CC1NCCCC1c1cc2c(Nc3cc4ncsc4cc3F)c(F)cnc2s1` (stereo not shown) [Example 122a, 6-fluoro-N-(5-fluoro-2-(2-methylpiperidin-3-yl)thieno[2,3-b]pyridin-4-yl) benzo[d]thiazol-5-amine] registered an IC50 of at least 50 nM.

For the compound `CC1C(c2cc3c(Nc4cc5ncsc5cc4F)c(F)cnc3s2)CCCN1C` (stereo not shown) [Example 123a, N-(2-(1,2-dimethylpiperidin-3-yl)-5-fluorothieno[2,3-b]pyridin-4-yl)-6-fluorobenzo[d]thiazol-5-amine], the IC50 is at least 50 nM.

As to `CC1NCCCC1c1cc2c(Nc3c(F)cc4scnc4c3F)c(F)cnc2s1` (stereo not shown) [Example 126a, 4,6-difluoro-N-(5-fluoro-2-(2-methylpiperidin-3-yl)thieno[2,3-b]pyridin-4-yl)benzo[d]thiazol-5-amine], the IC50 was at most 10 nM.

Take `CC1C(c2cc3c(Nc4c(F)cc5scnc5c4F)c(F)cnc3s2)CCCN1C` (stereo not shown) [Example 127b]: the IC50 is at most 10 nM.
